Measured values from patent US9475808B2, “Inhibitor compounds of phosphodiesterase type 10A” (AbbVie Deutschland GmbH & Co. KG, priority 2013, dated 2016).

Assays:
PDE10A = PDE10A (UniProt Q9Y233); experiment: Measurement of PDE activity (HTRF cAMP assay, recombinant enzyme); format: biochemical; settings: 20 nM cyclic nucleotide substrate, 60 minutes at 29 C
Experimental: The recombinant PDE proteins are used in in vitro enzymatic reaction for measurement of PDE activity. These recombinant proteins, including PDE10A (human, rat and mouse PDE10) and isoforms of PDEs 1, 3, 4, and 5, were purchased from commercial vendor BPS Bioscience. The enzymatic activity of PDEs was determined by cAMP measurement kit from CisBio (IBA) using HTRF technology.
The PDE enzymatic reaction was carried out in assay buffer (20 mM Tris-HCl pH7.5, 10 mM MgCl2, 0.1% bovine serum albumin) containing enzyme and substrate. The PDE enzymes concentration ranged from 10 pM-250 pM, depending on each enzyme's specific activity. The substrate cyclic nucleotide (cAMP or cGMP) concentration used in the assay was 20 nM for PDE10, and 100 nM for other PDEs. The inhibitory effect of compound was determined by incubating various concentration of inhibitor in the enzymatic assay. Typically, compound was serial diluted in DMSO then further diluted in assay buffer. Next, the compound at varying concentration was mixed with PDE enzyme. The reaction was initiated by addition of cyclic nucleotide substrate, and incubated for 60 minutes at 29 C. The reaction was stopped by addition of lysis buffer from assay kit. The cAMP-d2 and anti-cAMP cryptate in the lysis buffer detected the level of cAMP left from the PDE hydrolysis reaction. The PDE activity is reversely correlated with the amount of cAMP left in the reaction and can be converted to the percent activity of an uninhibited control (100%). Thus, IC50 value of inhibitor can be obtained by plotting inhibitor concentration against PDE activity at that concentration.

[1] = Determination of the microsomal half-life / microsomal clearance, rat liver microsomes; settings: 0.5 μM test substance, 0.25 mg microsomal protein/ml, pH 7.4, 37° C., NADPH
Experimental: (§1) The test substances were incubated in a concentration of 0.5 μM as follows:
(§2) 0.5 μM test substance are preincubated together with liver microsomes from different species (from rat, human or other species) (0.25 mg of microsomal protein/ml) in 0.05 M potassium phosphate buffer of pH 7.4 in microtiter plates at 37° C. for 5 min. The reaction is started by adding NADPH (1 mg/mL). After 0, 5, 10, 15, 20 and 30 min, 50 μl aliquots are removed, and the reaction is immediately stopped and cooled with the same volume of acetonitrile. The samples are frozen until analyzed. The remaining concentration of undegraded test substance is determined by MSMS. The half-life (T½) is determined from the gradient of the signal of test substance/unit time plot, it being possible to calculate the half-life of the test substance, assuming first order kinetics, from the decrease in the concentration of the compound with time. The microsomal clearance (mCl) is calculated from mCl=ln 2/T½/(content of microsomal protein in mg/ml)×1000 [ml/min/mg]

[2] = Determination of the microsomal half-life / microsomal clearance, human liver microsomes; settings: 0.5 μM test substance, 0.25 mg microsomal protein/ml, pH 7.4, 37° C., NADPH
Experimental: as §1, §2

## 2-(2-Imidazo[1,2-a]pyridin-2-yl-ethyl)-5-methyl-7-morpholin-4-yl-3,5-dihydro-2H-pyrrolo[3,4-c]pyridine-1,6-dione [Example 23]
PDE10A
  IC50: > 500 nM

## 5-Methyl-7-morpholin-4-yl-2-(2-[1,2,4]triazolo[1,5-a]pyridin-2-yl-ethyl)-5H-pyrrolo[3,4-c]pyridine-1,3,6-trione [Example 5]
PDE10A
  IC50: > 500 nM

## Cn1cc2c(c(N3CCOCC3)c1=O)C(=O)N(CCc1ccc3ccccc3n1)C2=O [Example 1, 5-Methyl-7-morpholin-4-yl-2-(2-quinolin-2-yl-ethyl)-5H-pyrrolo[3,4-c]pyridine-1,3,6-trione]
PDE10A
  IC50: < 100 nM
[1]
  Rat mCl: ++ (++: <100 μl min^−1 mg^−1)
[2]
  Human mCl: ++ (++: <100 μl min^−1 mg^−1)

## Cn1cc2c(c(N3CCOCC3)c1=O)CN(CCc1ccc3ccccc3n1)C2=O [Example 6, 5-Methyl-7-morpholin-4-yl-2-(2-quinolin-2-yl-ethyl)-1,2-dihydro-5H-pyrrolo[3,4-c]pyridine-3,6-dione]
PDE10A
  IC50: > 500 nM
[1]
  Rat mCl: ++ (++: <100 μl min^−1 mg^−1)
[2]
  Human mCl: ++ (++: <100 μl min^−1 mg^−1)

## CN1CCN(c2c3c(cn(C)c2=O)C(=O)N(CCc2ccc4ccccc4n2)C3)CC1 [Example 7, 5-Methyl-7-(4-methyl-piperazin-1-yl)-2-(2-quinolin-2-yl-ethyl)-1,2-dihydro-5H-pyrrolo[3,4-c]pyridine-3,6-dione]
PDE10A
  IC50: > 500 nM
[1]
  Rat mCl: +++ (+++ <10 μl min^−1 mg^−1)
[2]
  Human mCl: ++ (++: <100 μl min^−1 mg^−1)

## Cn1cc2c(c(-c3ccncc3)c1=O)CN(CCc1ccc3ccccc3n1)C2=O [Example 8, 5-Methyl-7-pyridin-4-yl-2-(2-quinolin-2-yl-ethyl)-1,2-dihydro-5H-pyrrolo[3,4-c]pyridine-3,6-dione]
PDE10A
  IC50: > 500 nM

## Cn1cc2c(c(N3CCOCC3)c1=O)C(=O)N(CCc1ccc3ccccc3n1)C2 [Example 9, 5-Methyl-7-morpholin-4-yl-2-(2-quinolin-2-yl-ethyl)-3,5-dihydro-2H-pyrrolo[3,4-c]pyridine-1,6-dione]
PDE10A
  IC50: < 100 nM
[1]
  Rat mCl: ++ (++: <100 μl min^−1 mg^−1)
[2]
  Human mCl: ++ (++: <100 μl min^−1 mg^−1)

## CN1CCN(c2c3c(cn(C)c2=O)CN(CCc2ccc4ccccc4n2)C3=O)CC1 [Example 10, 5-Methyl-7-(4-methyl-piperazin-1-yl)-2-(2-quinolin-2-yl-ethyl)-3,5-dihydro-2H-pyrrolo[3,4-c]pyridine-1,6-dione]
[1]
  Rat mCl: +++ (+++ <10 μl min^−1 mg^−1)
[2]
  Human mCl: +++ (+++ <10 μl min^−1 mg^−1)

## Cn1cc2c(c(-c3ccncc3)c1=O)C(=O)N(CCc1ccc3ccccc3n1)C2 [Example 11, 5-Methyl-7-pyridin-4-yl-2-(2-quinolin-2-yl-ethyl)-3,5-dihydro-2H-pyrrolo[3,4-c]pyridine-1,6-dione]
PDE10A
  IC50: 100 to 200 nM

## Cn1cc2c(c(N3CCS(=O)(=O)CC3)c1=O)C(=O)N(CCc1ccc3ccccc3n1)C2 [Example 12, 5-Methyl-7-(1,1-dioxo-thiomorpholin-4-yl)-2-(2-quinolin-2-yl-ethyl)-3,5-dihydro-2H-pyrrolo[3,4-c]pyridine-1,6-dione]
PDE10A
  IC50: 100 to 200 nM
[1]
  Rat mCl: +++ (+++ <10 μl min^−1 mg^−1)
[2]
  Human mCl: ++ (++: <100 μl min^−1 mg^−1)

## Cn1nccc1-c1c2c(cn(C)c1=O)CN(CCc1ccc3ccccc3n1)C2=O [Example 30, 5-Methyl-7-(2-methyl-2H-pyrazol-3-yl)-2-(2-quinolin-2-yl-ethyl)-3,5-dihydro-2H-pyrrolo[3,4-c]pyridine-1,6-dione]
PDE10A
  IC50: > 500 nM

## Cn1cc2c(c(N3CCOCC3)c1=O)C(=O)N(CCc1ccc3ccccc3n1)C2(F)F [Example 35, 3,3-Difluoro-5-methyl-7-morpholin-4-yl-2-(2-quinolin-2-yl-ethyl)-3,5-dihydro-2H-pyrrolo[3,4-c]pyridine-1,6-dione]
PDE10A
  IC50: < 100 nM
